The values that follow come from ChEMBL document CHEMBL1201862, “PubChem BioAssay data set” (2004).

What all share (experiment): NCI-60 cell line screen, 48 h
Experiment [1] concerns 786-0.
In experiment [2] the test system is A549.
In experiment [3] the test system is CAKI-1.
The test system of experiment [4] is CCRF-CEM.
The test system of experiment [5] is COLO 205.
Experiment [6] has as its system DU-145.
Experiment [7] relates to EKVX.
Experiment [8] relates to HT-29.
Experiment [9] relates to LOX IMVI.
Experiment [10] concerns MDA-MB-231.
Experiment [11] has as its system MDA-MB-435.
The test system of experiment [12] is MOLT-4.
Experiment [13] relates to Malme-3M.
The subject of experiment [14] is NCI-H226.
The test system of experiment [15] is NCI-H23.
Experiment [16] concerns NCI-H460.
Experiment [17] has as its system OVCAR-5.
Experiment [18] deals with SK-MEL-28.
Experiment [19] relates to SR.
In experiment [20] the test system is U-251.

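Where inhibition never reached the appropriate level, the endpoint shown equals the highest concentration tested. Otherwise, values were interpolated linearly from a five-concentration, 48-hour dose response in 96-well plates. GI50 = concentration required for 50% inhibition of growth.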 Calls of active or inactive are those of the source. Rule as the data show it: active = GI50 up to about 1.1 µM and inactive = higher. A value given as a limit tells only on which side of the number the result lay.

With `CC1(C)[N+]([O-])=[N+]([O-])C1(Br)c1ccccc1` (stereo not given), the GI50 in experiment [1] was 68.9 µM (inactive); in experiment [2] it was > 100 µM (inactive); in [3], > 100 µM (inactive); in experiment [4], 39.9 µM (inactive); in experiment [5] it was > 100 µM (inactive); in [6] it was 79.1 µM (inactive). Further, the GI50 was > 100 µM (inactive) in experiment [7]; 39.3 µM (inactive) in experiment [8]; 48.1 µM (inactive) in [9]; 59.6 µM (inactive) in experiment [10]; > 100 µM (inactive) in experiment [11]; 45.4 µM (inactive) in experiment [12]. Besides, the GI50 in experiment [13] was > 100 µM (inactive); in [14] it was > 100 µM (inactive); in [15] it was 80.9 µM (inactive); in [16] it was 68.2 µM (inactive); in [17], > 100 µM (inactive); in experiment [18] it was > 100 µM (inactive). In addition, the GI50 in [19] is 43.5 µM (inactive); in experiment [20], > 100 µM (inactive).
Consider `NC(=O)CC1(O)C=CC(=O)C=C1`, for which the GI50 in experiment [1] was > 100 µM (inactive); in experiment [2], > 100 µM (inactive); in experiment [3] it was 41.9 µM (inactive); in [4], > 100 µM (inactive); in experiment [5] it was > 100 µM (inactive); in experiment [6] it was > 100 µM (inactive). The GI50 in experiment [7], in experiment [8], in experiment [9], in experiment [10], in [11] and in experiment [12] was > 100 µM (inactive) in each case. The GI50 in [13], in [14], in experiment [15], in experiment [16], in experiment [17] and in experiment [18] was > 100 µM (inactive) throughout. Also, the values for the GI50 in experiment [19] and in experiment [20] were 88.7 µM (inactive) and > 100 µM (inactive), respectively.
With `Clc1nc2c(N3CCCC3)nc(N3CCNCC3)nc2[nH]1`, the GI50 is 17.8 µM (inactive) in [1]; 17.9 µM (inactive) in experiment [2]; 39 µM (inactive) in experiment [3]; 19.4 µM (inactive) in [4]; 16.4 µM (inactive) in experiment [5]; 16.4 µM (inactive) in experiment [6]. For the same molecule, the GI50 in [7] was 17.3 µM (inactive); in experiment [8], 17.4 µM (inactive); in [9], 15.8 µM (inactive); in experiment [10], 16.4 µM (inactive); in experiment [11], 18.7 µM (inactive); in [12], 20.9 µM (inactive). Moreover, the GI50 in [13] is 20.7 µM (inactive); in experiment [14], > 100 µM (inactive); in [15] it was 16.9 µM (inactive); in experiment [16], 17.6 µM (inactive); in experiment [17], 19.3 µM (inactive); in experiment [18], 22.3 µM (inactive). Besides, the GI50 in experiment [19] is 16.9 µM (inactive); in experiment [20] it was 17.2 µM (inactive).
Turning to `COc1ccccc1N1C(=O)CS(=O)(=O)C1c1cccc(Oc2ccccc2)c1` (stereo not given), the GI50 in experiment [1] is 18.3 µM (inactive); in experiment [2] it was 18.9 µM (inactive); in experiment [3], 19.9 µM (inactive); in [4], 25.8 µM (inactive); in experiment [5] it was 16.1 µM (inactive); in experiment [6] it was 23.9 µM (inactive). In addition, the GI50 was 20.8 µM (inactive) in experiment [7]; 21.4 µM (inactive) in experiment [8]; 17.8 µM (inactive) in [9]; 15.5 µM (inactive) in experiment [10]; 4.26 µM (inactive) in [11]; 13.9 µM (inactive) in experiment [12]. Further, the GI50 in [13] is 15 µM (inactive); in [14] it was 14.6 µM (inactive); in experiment [15], 16.7 µM (inactive); in [16] it was 15.2 µM (inactive); in experiment [17], 26.2 µM (inactive); in experiment [18], 17.5 µM (inactive). In addition, the GI50 in experiment [19] was 5.57 µM (inactive); in experiment [20] it was 16.1 µM (inactive).
`CCOc1ccc(Nc2nc(N)nc(N)c2N)cc1`: the GI50 in [1] was 22.3 µM (inactive); in experiment [2], 45.2 µM (inactive); in experiment [3] it was 28.6 µM (inactive); in [4], 20.2 µM (inactive); in experiment [5] it was 27.9 µM (inactive); in experiment [6], > 100 µM (inactive). In addition, the GI50 in [7] was > 100 µM (inactive); in experiment [8], 17.8 µM (inactive); in experiment [9], 36.2 µM (inactive); in experiment [10], 31.8 µM (inactive); in experiment [11], 25.1 µM (inactive); in experiment [12], 19.8 µM (inactive). The GI50 is 12.6 µM (inactive) in [13]; 42.2 µM (inactive) in [14]; 26.8 µM (inactive) in [15]; 29.1 µM (inactive) in [16]; 29.6 µM (inactive) in [17]; > 100 µM (inactive) in experiment [18]. Also, the GI50 in experiment [19] was 0.472 µM (active); in experiment [20], 24.1 µM (inactive).
For `CC(NC1=NCCO1)c1ccsc1` (stereo not given), the GI50 in [1] is 18.8 µM (inactive); in [2], 39.4 µM (inactive); in experiment [3], > 100 µM (inactive); in experiment [4], 19.4 µM (inactive); in [5] it was 17.9 µM (inactive); in experiment [6], 43.1 µM (inactive). For the same molecule, the GI50 was 54.7 µM (inactive) in experiment [7]; 15.2 µM (inactive) in [8]; 20.3 µM (inactive) in [9]; 18.2 µM (inactive) in experiment [10]; 20.9 µM (inactive) in experiment [11]; 22.7 µM (inactive) in experiment [12]. Also, the GI50 is 21 µM (inactive) in [13]; 58.1 µM (inactive) in experiment [14]; 64.4 µM (inactive) in [15]; 10.9 µM (inactive) in experiment [16]; > 100 µM (inactive) in [17]; 19 µM (inactive) in experiment [18]. The GI50 was 24.8 µM (inactive) in experiment [19] and 18.2 µM (inactive) in experiment [20].
For the molecule `NCCCCc1cc(O)c2c(c1O)C(=O)c1ccccc1C2=O`, the GI50 in experiment [1] was 6 µM (inactive); in experiment [2] it was 5.05 µM (inactive); in experiment [3] it was 12.6 µM (inactive); in experiment [4], 3.77 µM (inactive); in [5], 3.94 µM (inactive); in experiment [6], 12 µM (inactive). In addition, the GI50 in experiment [7] is 17.1 µM (inactive); in [8], 4.19 µM (inactive); in experiment [9], 7.59 µM (inactive); in [10] it was 9.1 µM (inactive); in experiment [11], 22.6 µM (inactive); in experiment [12], 2.81 µM (inactive). The GI50 in experiment [13] was 14.7 µM (inactive); in experiment [14], 4.56 µM (inactive); in [15], 14.3 µM (inactive); in [16], 10.5 µM (inactive); in experiment [17], 13.3 µM (inactive); in [18] it was 17.5 µM (inactive). Also, the GI50 in experiment [19] is 3.18 µM (inactive); in [20], 9.75 µM (inactive).
Consider `CN1CCN(CN2C(=O)C3C4C=CC(C3C2=O)C2C(=O)N(CN3CCN(C)CC3)C(=O)C42)CC1` (stereo not given), for which the GI50 in [1] is 54 µM (inactive); in experiment [2], > 10 µM (inactive); in [3] it was 38.1 µM (inactive); in experiment [4] it was 28.6 µM (inactive); in experiment [5], 54.6 µM (inactive); in experiment [6] it was 17.8 µM (inactive). Further, the GI50 was > 100 µM (inactive) in experiment [7]; 22.5 µM (inactive) in experiment [8]; 24.8 µM (inactive) in experiment [9]; > 73.6 µM (inactive) in [10]; > 74.6 µM (inactive) in experiment [11]; 36.9 µM (inactive) in experiment [12]. Further, the GI50 in experiment [13] is > 55.3 µM (inactive); in [14] it was > 87.1 µM (inactive); in experiment [15] it was > 49.8 µM (inactive); in experiment [16] it was > 53.8 µM (inactive); in experiment [17], > 100 µM (inactive); in [18] it was > 42.9 µM (inactive). Besides, the GI50 was 32.4 µM (inactive) in experiment [19] and > 54.5 µM (inactive) in [20].
As for `O=C1CSC(c2ccccc2[N+](=O)[O-])N1c1ccc(-n2c(-c3ccccc3)nc3ccccc3c2=O)cc1` (stereo not given), the GI50 in experiment [1] was 31.4 µM (inactive); in experiment [2], 63.2 µM (inactive); in experiment [3], 67.9 µM (inactive); in experiment [4], 41.1 µM (inactive); in experiment [5] it was 99.1 µM (inactive); in experiment [6] it was > 100 µM (inactive). Moreover, the GI50 in [7] is 47.4 µM (inactive); in [8], 54.3 µM (inactive); in experiment [9] it was 28.6 µM (inactive); in experiment [10] it was 46.3 µM (inactive); in [11], > 100 µM (inactive); in experiment [12] it was 16.6 µM (inactive). In addition, the GI50 is 39.8 µM (inactive) in experiment [13]; 28.4 µM (inactive) in experiment [14]; > 100 µM (inactive) in experiment [15]; 31.5 µM (inactive) in experiment [16]; > 100 µM (inactive) in experiment [17]; > 100 µM (inactive) in experiment [18]. Also, the GI50 in [19] was 19.8 µM (inactive); in experiment [20], 17.7 µM (inactive).
As to `Fc1cc(C2=Nn3c(CNc4ccc(Cl)cc4)nnc3S/C2=C\c2ccc(-c3ccc(Cl)cc3)o2)c(Cl)cc1Cl`, the GI50 in [1] is 32.3 µM (inactive); in [2] it was 35.6 µM (inactive); in experiment [3] it was 23.6 µM (inactive); in experiment [4], 67.1 µM (inactive); in [5] it was 14.3 µM (inactive); in [6], 65 µM (inactive). Also, the GI50 in experiment [7] is 7.52 µM (inactive); in experiment [8], 32.8 µM (inactive); in experiment [9], 22.8 µM (inactive); in experiment [10] it was 10.2 µM (inactive); in experiment [11], 68.5 µM (inactive); in experiment [12], 3.33 µM (inactive). The GI50 in experiment [13] is 17.3 µM (inactive); in [14], 26.5 µM (inactive); in [15] it was 81.8 µM (inactive); in experiment [16], 65.3 µM (inactive); in [17] it was 18.7 µM (inactive); in experiment [18] it was 67 µM (inactive). The GI50 in [19] is 29.6 µM (inactive); in experiment [20], 18.6 µM (inactive).
